Source: patent publication US20090143279A1 (priority 2007, published 2009)
Where a name gives a salt, the structure may show the parent alone.

Tested on: cytochrome c
Type: cell-based, mouse
Details: composite Z-score vs DMSO; Conc 20 μM

Compared with COc1ccc2c(c1)C1(C)CCC(O)CC1CC2 (centres unmarked), CC(=O)O[C@@H]1C[C@H]2C(C)(C)C(=O)C=C[C@]2(C)[C@H]2CC[C@]3(C)C(=CC(=O)O[C@H]3c3ccoc3)[C@@]21C [deoxygedunin] is higher in cyt c: −0.087 for the first, 1.083 for the second.

First: CCN(CCCc1ccccc1)CCCc1ccccc1 [alverine citrate]
Second: Cc1c(C(=O)O)c(O)cc2c1C(=O)c1c(O)c([C@@H]3O[C@H](CO)[C@@H](O)[C@H](O)[C@H]3O)c(O)c(O)c1C2=O [carminic acid]
The cyt c of the first is lower: −0.433 for the first, −0.243 for the second.

First: C[C@H]1C(=O)CC[C@@H]2[C@]1(C)CC[C@H]1[C@@]2(C)CC[C@@]2(C)[C@@H]3CC(C)(C)CC[C@]3(C)CC[C@]12C [friedelin]
Second: Cc1cc(O)c(C=O)c2c1C(=O)Oc1c(C)c(O)c3c(c1O2)C(O)OC3=O (centres unmarked) [norstictic acid]
The cyt c of the first is higher: 0.614 for the first, 0.467 for the second.

Same assay, conditions: composite Z-score vs mock-treated (DMSO) wells; Conc 20 μM

For Cc1cc(O)c(C=O)c2c1C(=O)Oc1c(C)c(O)c3c(c1O2)C(O)OC3=O (centres unmarked) [norstictic acid], the cyt c was 0.471.

Tested on: OXPHOS gene expression
Type: cell-based, mouse
Details: composite Z-score vs DMSO; Conc 20 μM

Compared with COc1ccc2c(c1)C1(C)CCC(O)CC1CC2 (centres unmarked), CC(=O)O[C@@H]1C[C@H]2C(C)(C)C(=O)C=C[C@]2(C)[C@H]2CC[C@]3(C)C(=CC(=O)O[C@H]3c3ccoc3)[C@@]21C [deoxygedunin] is lower in GE-HTS: −0.375 for the first, −1.229 for the second.

First: CCN(CCCc1ccccc1)CCCc1ccccc1 [alverine citrate]
Second: Cc1c(C(=O)O)c(O)cc2c1C(=O)c1c(O)c([C@@H]3O[C@H](CO)[C@@H](O)[C@H](O)[C@H]3O)c(O)c(O)c1C2=O [carminic acid]
The GE-HTS of the first is higher: −0.238 for the first, −0.727 for the second.

Going from C[C@H]1C(=O)CC[C@@H]2[C@]1(C)CC[C@H]1[C@@]2(C)CC[C@@]2(C)[C@@H]3CC(C)(C)CC[C@]3(C)CC[C@]12C [friedelin] to Cc1cc(O)c(C=O)c2c1C(=O)Oc1c(C)c(O)c3c(c1O2)C(O)OC3=O (centres unmarked) [norstictic acid], the GE-HTS rises from −1.043 to −0.800.

Same assay, conditions: composite Z-score vs mock-treated (DMSO) wells; Conc 20 μM

Compound Cc1cc(O)c(C=O)c2c1C(=O)Oc1c(C)c(O)c3c(c1O2)C(O)OC3=O (centres unmarked) [norstictic acid] has a GE-HTS of 0.518.

Tested on: mtOXPHOS transcripts
Type: cell-based, mouse
Details: composite Z-score vs DMSO; Conc 20 μM

Going from COc1ccc2c(c1)C1(C)CCC(O)CC1CC2 (centres unmarked) to CC(=O)O[C@@H]1C[C@H]2C(C)(C)C(=O)C=C[C@]2(C)[C@H]2CC[C@]3(C)C(=CC(=O)O[C@H]3c3ccoc3)[C@@]21C [deoxygedunin], the mitoOX falls from −0.270 to −0.808.

Going from CCN(CCCc1ccccc1)CCCc1ccccc1 [alverine citrate] to Cc1c(C(=O)O)c(O)cc2c1C(=O)c1c(O)c([C@@H]3O[C@H](CO)[C@@H](O)[C@H](O)[C@H]3O)c(O)c(O)c1C2=O [carminic acid], the mitoOX falls from −0.442 to −0.671.

Going from C[C@H]1C(=O)CC[C@@H]2[C@]1(C)CC[C@H]1[C@@]2(C)CC[C@@]2(C)[C@@H]3CC(C)(C)CC[C@]3(C)CC[C@]12C [friedelin] to Cc1cc(O)c(C=O)c2c1C(=O)Oc1c(C)c(O)c3c(c1O2)C(O)OC3=O (centres unmarked) [norstictic acid], the mitoOX falls from −0.600 to −1.023.

Same assay, conditions: composite Z-score vs mock-treated (DMSO) wells; Conc 20 μM

Cc1cc(O)c(C=O)c2c1C(=O)Oc1c(C)c(O)c3c(c1O2)C(O)OC3=O (centres unmarked) [norstictic acid] gave a mitoOX of −0.148.

Tested on: mitochondrial membrane potential
Type: cell-based, mouse
Details: composite Z-score vs DMSO; Conc 20 μM

First: COc1ccc2c(c1)C1(C)CCC(O)CC1CC2 (centres unmarked)
Second: CC(=O)O[C@@H]1C[C@H]2C(C)(C)C(=O)C=C[C@]2(C)[C@H]2CC[C@]3(C)C(=CC(=O)O[C@H]3c3ccoc3)[C@@]21C [deoxygedunin]
The ΔΨm of the first is lower: −0.840 for the first, 1.327 for the second.

First: CCN(CCCc1ccccc1)CCCc1ccccc1 [alverine citrate]
Second: Cc1c(C(=O)O)c(O)cc2c1C(=O)c1c(O)c([C@@H]3O[C@H](CO)[C@@H](O)[C@H](O)[C@H]3O)c(O)c(O)c1C2=O [carminic acid]
The ΔΨm of the first is higher: 0.433 for the first, −0.378 for the second.

Compared with C[C@H]1C(=O)CC[C@@H]2[C@]1(C)CC[C@H]1[C@@]2(C)CC[C@@]2(C)[C@@H]3CC(C)(C)CC[C@]3(C)CC[C@]12C [friedelin], Cc1cc(O)c(C=O)c2c1C(=O)Oc1c(C)c(O)c3c(c1O2)C(O)OC3=O (centres unmarked) [norstictic acid] is higher in ΔΨm: −0.867 for the first, −0.628 for the second.

Same assay, conditions: composite Z-score vs mock-treated (DMSO) wells; Conc 20 μM

Cc1cc(O)c(C=O)c2c1C(=O)Oc1c(C)c(O)c3c(c1O2)C(O)OC3=O (centres unmarked) [norstictic acid] was tested, and the ΔΨm was 0.903.

Tested on: cellular dehydrogenase activity
Details: composite Z-score vs DMSO; Conc 20 μM

Compared with COc1ccc2c(c1)C1(C)CCC(O)CC1CC2 (centres unmarked), CC(=O)O[C@@H]1C[C@H]2C(C)(C)C(=O)C=C[C@]2(C)[C@H]2CC[C@]3(C)C(=CC(=O)O[C@H]3c3ccoc3)[C@@]21C [deoxygedunin] is higher in MTT: −2.017 for the first, −0.532 for the second.

Compared with CCN(CCCc1ccccc1)CCCc1ccccc1 [alverine citrate], Cc1c(C(=O)O)c(O)cc2c1C(=O)c1c(O)c([C@@H]3O[C@H](CO)[C@@H](O)[C@H](O)[C@H]3O)c(O)c(O)c1C2=O [carminic acid] is lower in MTT: −0.018 for the first, −1.295 for the second.

Going from C[C@H]1C(=O)CC[C@@H]2[C@]1(C)CC[C@H]1[C@@]2(C)CC[C@@]2(C)[C@@H]3CC(C)(C)CC[C@]3(C)CC[C@]12C [friedelin] to Cc1cc(O)c(C=O)c2c1C(=O)Oc1c(C)c(O)c3c(c1O2)C(O)OC3=O (centres unmarked) [norstictic acid], the MTT rises from −1.362 to −0.613.

Same assay, conditions: composite Z-score vs mock-treated (DMSO) wells; Conc 20 μM

Cc1cc(O)c(C=O)c2c1C(=O)Oc1c(C)c(O)c3c(c1O2)C(O)OC3=O (centres unmarked) [norstictic acid] was tested, and the MTT was −0.567.

Tested on: nuOXPHOS transcripts
Type: cell-based, mouse
Details: composite Z-score vs DMSO; Conc 20 μM

First: COc1ccc2c(c1)C1(C)CCC(O)CC1CC2 (centres unmarked)
Second: CC(=O)O[C@@H]1C[C@H]2C(C)(C)C(=O)C=C[C@]2(C)[C@H]2CC[C@]3(C)C(=CC(=O)O[C@H]3c3ccoc3)[C@@]21C [deoxygedunin]
The nucOX of the first is higher: −0.350 for the first, −1.298 for the second.

Going from CCN(CCCc1ccccc1)CCCc1ccccc1 [alverine citrate] to Cc1c(C(=O)O)c(O)cc2c1C(=O)c1c(O)c([C@@H]3O[C@H](CO)[C@@H](O)[C@H](O)[C@H]3O)c(O)c(O)c1C2=O [carminic acid], the nucOX falls from −0.098 to −0.662.

Compared with C[C@H]1C(=O)CC[C@@H]2[C@]1(C)CC[C@H]1[C@@]2(C)CC[C@@]2(C)[C@@H]3CC(C)(C)CC[C@]3(C)CC[C@]12C [friedelin], Cc1cc(O)c(C=O)c2c1C(=O)Oc1c(C)c(O)c3c(c1O2)C(O)OC3=O (centres unmarked) [norstictic acid] is higher in nucOX: −1.150 for the first, −0.639 for the second.

Same assay, conditions: composite Z-score vs mock-treated (DMSO) wells; Conc 20 μM

Cc1cc(O)c(C=O)c2c1C(=O)Oc1c(C)c(O)c3c(c1O2)C(O)OC3=O (centres unmarked) [norstictic acid] gave a nucOX of 0.774.

Tested on: C2C12 myotubes
Details: composite Z-score vs DMSO; Conc 20 μM

Going from COc1ccc2c(c1)C1(C)CCC(O)CC1CC2 (centres unmarked) to CC(=O)O[C@@H]1C[C@H]2C(C)(C)C(=O)C=C[C@]2(C)[C@H]2CC[C@]3(C)C(=CC(=O)O[C@H]3c3ccoc3)[C@@]21C [deoxygedunin], the Viability rises from −1.078 to −0.326.

Compared with CCN(CCCc1ccccc1)CCCc1ccccc1 [alverine citrate], Cc1c(C(=O)O)c(O)cc2c1C(=O)c1c(O)c([C@@H]3O[C@H](CO)[C@@H](O)[C@H](O)[C@H]3O)c(O)c(O)c1C2=O [carminic acid] is lower in Viability: 0.885 for the first, −0.905 for the second.

First: C[C@H]1C(=O)CC[C@@H]2[C@]1(C)CC[C@H]1[C@@]2(C)CC[C@@]2(C)[C@@H]3CC(C)(C)CC[C@]3(C)CC[C@]12C [friedelin]
Second: Cc1cc(O)c(C=O)c2c1C(=O)Oc1c(C)c(O)c3c(c1O2)C(O)OC3=O (centres unmarked) [norstictic acid]
The Viability of the first is lower: 0.082 for the first, 0.730 for the second.

Same assay, conditions: composite Z-score vs mock-treated (DMSO) wells; Conc 20 μM

Cc1cc(O)c(C=O)c2c1C(=O)Oc1c(C)c(O)c3c(c1O2)C(O)OC3=O (centres unmarked) [norstictic acid] gave a Viability of −0.899.

Tested on: reactive oxygen species
Type: cell-based, mouse
Details: composite Z-score vs DMSO; Conc 20 μM

Going from COc1ccc2c(c1)C1(C)CCC(O)CC1CC2 (centres unmarked) to CC(=O)O[C@@H]1C[C@H]2C(C)(C)C(=O)C=C[C@]2(C)[C@H]2CC[C@]3(C)C(=CC(=O)O[C@H]3c3ccoc3)[C@@]21C [deoxygedunin], the ROS falls from 0.559 to −0.640.

First: CCN(CCCc1ccccc1)CCCc1ccccc1 [alverine citrate]
Second: Cc1c(C(=O)O)c(O)cc2c1C(=O)c1c(O)c([C@@H]3O[C@H](CO)[C@@H](O)[C@H](O)[C@H]3O)c(O)c(O)c1C2=O [carminic acid]
The ROS of the first is higher: 1.116 for the first, 0.083 for the second.

Going from C[C@H]1C(=O)CC[C@@H]2[C@]1(C)CC[C@H]1[C@@]2(C)CC[C@@]2(C)[C@@H]3CC(C)(C)CC[C@]3(C)CC[C@]12C [friedelin] to Cc1cc(O)c(C=O)c2c1C(=O)Oc1c(C)c(O)c3c(c1O2)C(O)OC3=O (centres unmarked) [norstictic acid], the ROS falls from 0.449 to −0.426.

Same assay, conditions: composite Z-score vs mock-treated (DMSO) wells; Conc 20 μM

Compound Cc1cc(O)c(C=O)c2c1C(=O)Oc1c(C)c(O)c3c(c1O2)C(O)OC3=O (centres unmarked) [norstictic acid] has an ROS of 0.560.
